Marks after values point to notes of the source that are not given here.
Tested on: acute lung injury associated with COVID-19
Assay: Phase 2 study Part 1, multiple ascending dose in hospitalized COVID-19 patients
Format: in vivo, human
Conditions: for subjects discharged from the hospital: by Day 21 (placebo 50%); for # Subjects Alive: Part 1, COVID-19 patients
[1] = Part 1, 1 mg QD inhaled, Day 28
[2] = Part 1, 3 mg QD inhaled, Day 28
[3] = Part 1, 10 mg QD inhaled, Day 28

CCc1cc(O)ccc1-c1ccc2c(-c3nc4c([nH]3)CN(C(C)C)[C@H](C(=O)N3CC(N(C)C)C3)C4)n[nH]c2c1 [Compound 1, (S)-(3-(dimethylamino)azetidin-1-yl)(2-(6-(2-ethyl-4-hydroxyphenyl)-1H-indazol-3-yl)-5-isopropyl-4,5,6,7-tetrahydro-3H-imidazo[4,5-c]pyridin-6-yl)methanone]
one: deaths observed (Part 1, 1 mg group)
6 (85.7%) subjects (%): Hospital Discharge (Part 1, 3 mg, Day 21)
1 (14.3%) subjects (%): Hospital Discharge (Part 1, 3 mg, Day 7)
0 subjects (%): Still in Hospital at Day 28 (Part 1, 1 mg) | Hospital Discharge (Part 1, 1 mg, Day 7) | Clinical Status 2-Not hospitalized, but with limitations on activities and/or requiring home oxygen (Part 1, 1 mg, Day 28) | Clinical Status 3-Hospitalized, not requiring supplemental oxygen, and no longer requiring ongoing medical care (Part 1, 1 mg, Day 28) | Clinical Status 4-Hospitalized, not requiring supplemental oxygen, but requiring ongoing medical care (Part 1, 1 mg, Day 28) | Clinical Status 5-Hospitalized, requiring supplemental oxygen (Part 1, 1 mg, Day 28) | Clinical Status 6-Hospitalized, on non-invasive ventilation or high-flow oxygen devices (Part 1, 1 mg, Day 28) | Clinical Status 7-Hospitalized, on invasive mechanical ventilation or extracorporeal membrane oxygenation (Part 1, 1 mg, Day 28) | Still in Hospital at Day 28 (Part 1, 3 mg) | Died (All-Cause Mortality) (Part 1, 3 mg QD inhaled) | Clinical Status 2-Not hospitalized, but with limitations on activities and/or requiring home oxygen (Part 1, 3 mg, Day 28) | Clinical Status 3-Hospitalized, not requiring supplemental oxygen, and no longer requiring ongoing medical care (Part 1, 3 mg, Day 28) | Clinical Status 5-Hospitalized, requiring supplemental oxygen (Part 1, 3 mg, Day 28) | Clinical Status 6-Hospitalized, on non-invasive ventilation or high-flow oxygen devices (Part 1, 3 mg, Day 28) | Clinical Status 7-Hospitalized, on invasive mechanical ventilation or extracorporeal membrane oxygenation (Part 1, 3 mg, Day 28) | Clinical Status 8-Death (Part 1, 3 mg, Day 28) | Still in Hospital at Day 28 (Part 1, 10 mg) | Died (All-Cause Mortality) (Part 1, 10 mg QD inhaled) | Hospital Discharge (Part 1, 10 mg, Day 7) | Clinical Status 3-Hospitalized, not requiring supplemental oxygen, and no longer requiring ongoing medical care (Part 1, 10 mg, Day 28) | Clinical Status 4-Hospitalized, not requiring supplemental oxygen, but requiring ongoing medical care (Part 1, 10 mg, Day 28) | Clinical Status 5-Hospitalized, requiring supplemental oxygen (Part 1, 10 mg, Day 28) | Clinical Status 6-Hospitalized, on non-invasive ventilation or high-flow oxygen devices (Part 1, 10 mg, Day 28) | Clinical Status 7-Hospitalized, on invasive mechanical ventilation or extracorporeal membrane oxygenation (Part 1, 10 mg, Day 28) | Clinical Status 8-Death (Part 1, 10 mg, Day 28)
6 (85.7%)* subjects (%): # Subjects Respiratory Failure-Free [2] | Proportion of Subjects Alive and Respiratory Failure-free [2]
100%: subjects discharged from the hospital (Part 1, 10 mg)
2 (33.3%) subjects (%): Hospital Discharge (Part 1, 1 mg, Day 14) | Hospital Discharge (Part 1, 10 mg, Day 14)
1 (16.7%) subjects (%): Died (All-Cause Mortality) (Part 1, 1 mg QD inhaled) | Clinical Status 8-Death (Part 1, 1 mg, Day 28) | Clinical Status 4-Hospitalized, not requiring supplemental oxygen, but requiring ongoing medical care (Part 1, 3 mg, Day 28) | Clinical Status 2-Not hospitalized, but with limitations on activities and/or requiring home oxygen (Part 1, 10 mg, Day 28)
7 (100%) subjects (%): Hospital Discharge (Part 1, 3 mg, Day 28)
86%: subjects discharged from the hospital (Part 1, 3 mg)
3 (50.0%) subjects (%): Hospital Discharge (Part 1, 1 mg, Day 21)
positive trend: trend vs placebo in oxygenation, clinical status, mortality, respiratory-failure free, time to discharge, Borg Dyspnea Score (Part 1, all compound 1 groups) | trend in reduction of inflammation markers (hsCRP, IFN-g, IL-6, IP-10) and RAGE (Part 1, mostly 3 mg and 10 mg doses)
5 (83.3%) subjects (%): # Subjects Respiratory Failure-Free [1] | Proportion of Subjects Alive and Respiratory Failure-free [1] | Clinical Status 1-Not hospitalized, no limitations on activities (Part 1, 1 mg, Day 28) | Hospital Discharge (Part 1, 1 mg, Day 28) | Clinical Status 1-Not hospitalized, no limitations on activities (Part 1, 3 mg, Day 28) | Clinical Status 1-Not hospitalized, no limitations on activities (Part 1, 10 mg, Day 28) | # Subjects Alive (1 mg QD inhaled, Day 28)
7 (100.0%)* subjects (%): # Subjects Alive (3 mg QD inhaled, Day 28)
2 (28.6%) subjects (%): Hospital Discharge (Part 1, 3 mg, Day 14)
6 (100%) subjects (%): Hospital Discharge (Part 1, 10 mg, Day 21) | Hospital Discharge (Part 1, 10 mg, Day 28)
6 (100.0%) subjects (%): # Subjects Respiratory Failure-Free [3] | Proportion of Subjects Alive and Respiratory Failure-free [3] | # Subjects Alive (10 mg QD inhaled, Day 28)

Reference: US20230021647A1, “METHOD OF TREATING A PATIENT INFECTED WITH A CORONAVIRUS AND HAVING A BASELINE LEVEL OF CRP BELOW 150 MG/L” (Theravance Biopharma R&D IP, LLC, priority 2021, published 2023)
